In patent publication US20090069373A1, “Quinoline Acids” (Wyeth, priority 2007, published 2009):

Key:
human LXRβ = target: T1, human LXRβ (Homo sapiens, UniProt P55055); assay: Ligand-binding test procedure for human LXRβ (3H T0901317 competition, flash plates); conditions: for Binding ratio a/b: IC50 (μM) LXRα binding/IC50 (μM) LXRβ binding; for IC50: biotinylated hLXRβ, tracer 3H T0901317
T1 construct: biotin (biotinylated; biotinylation tag not described); made in house; host or cells: E. coli
T1 sequence (P55055 1-460): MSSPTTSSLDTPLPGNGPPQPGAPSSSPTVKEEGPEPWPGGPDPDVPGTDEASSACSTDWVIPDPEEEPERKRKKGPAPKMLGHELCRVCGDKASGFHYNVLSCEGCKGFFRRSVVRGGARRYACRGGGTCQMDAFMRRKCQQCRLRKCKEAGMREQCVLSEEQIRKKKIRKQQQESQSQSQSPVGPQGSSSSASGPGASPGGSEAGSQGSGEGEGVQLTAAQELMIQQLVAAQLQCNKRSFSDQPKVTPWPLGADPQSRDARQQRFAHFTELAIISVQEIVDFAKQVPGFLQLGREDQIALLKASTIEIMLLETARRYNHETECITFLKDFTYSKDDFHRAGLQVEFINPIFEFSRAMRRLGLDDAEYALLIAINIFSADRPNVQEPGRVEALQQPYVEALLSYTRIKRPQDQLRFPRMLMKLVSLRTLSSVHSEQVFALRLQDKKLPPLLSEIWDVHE

human LXRα = target: T2, human LXRα (Homo sapiens, UniProt Q13133); assay: Ligand-binding test procedure for human LXRα (3H T0901317 competition, flash plates); conditions: biotinylated hLXRα, tracer 3H T0901317
T2 construct: biotin (biotinylated; biotinylation tag not described); made in house; host or cells: E. coli
T2 sequence (Q13133 1-447): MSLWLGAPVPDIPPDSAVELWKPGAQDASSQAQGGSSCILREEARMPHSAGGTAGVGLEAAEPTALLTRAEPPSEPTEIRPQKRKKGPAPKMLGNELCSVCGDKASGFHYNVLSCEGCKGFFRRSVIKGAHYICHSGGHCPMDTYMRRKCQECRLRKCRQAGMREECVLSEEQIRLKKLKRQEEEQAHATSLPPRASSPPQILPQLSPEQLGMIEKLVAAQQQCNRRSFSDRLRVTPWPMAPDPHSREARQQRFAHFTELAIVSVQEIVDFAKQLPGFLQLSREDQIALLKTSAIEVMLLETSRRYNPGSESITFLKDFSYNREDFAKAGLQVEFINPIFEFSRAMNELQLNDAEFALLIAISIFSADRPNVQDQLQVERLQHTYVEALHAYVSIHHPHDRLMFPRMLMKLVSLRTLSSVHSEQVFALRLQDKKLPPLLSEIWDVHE
Summary of the method: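 Competition binding of test ligands against 5 nM ³H tracer solution (pre-mix concentration) on biotinylated hLXRα from E. coli extract, captured on streptavidin flash plates (Bmax ~4000 cpm). Ligand dilution series made in DMSO. Incubated overnight at +4 °C; bound radioactivity counted after washing.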

Structure (SMILES)	Binding ratio a/b (human LXRβ)	IC50 (human LXRβ)	IC50 (human LXRα)
Cc1ccc(NCc2cccc(-c3c(Cc4ccccc4)cnc4c(C(F)(F)F)cccc34)c2)c(C(=O)O)c1 [Example 71, 2-({3-[3-benzyl-8-(trifluoromethyl)quinolin-4-yl]benzyl}amino)-5-methylbenzoic acid]	4	558 nM	2060 nM
Cc1cnc2c(C(F)(F)F)cccc2c1-c1cccc(CNc2ccc(C(=O)O)c(Cl)c2)c1 [Example 73, 2-chloro-4-({3-[3-methyl-8-(trifluoromethyl)quinolin-4-yl]benzyl}amino)benzoic acid]	3	183 nM	613 nM
Cc1cc(NCc2cccc(-c3c(Cc4ccccc4)cnc4c(C(F)(F)F)cccc34)c2)ccc1C(=O)O [Example 75, 4-({3-[3-benzyl-8-(trifluoromethyl)quinolin-4-yl]benzyl}amino)-2-methylbenzoic acid]	3	25 nM	80 nM
O=C(O)c1cc2ccccc2cc1NCc1cccc(-c2c(Cc3ccccc3)cnc3c(C(F)(F)F)cccc23)c1 [Example 78, 3-({3-[3-benzyl-8-(trifluoromethyl)quinolin-4-yl]benzyl}amino)-2-naphthoic acid]	3	666 nM	1990 nM
Cn1cc(C(=O)O)c2cc(NCc3cccc(-c4c(Cc5ccccc5)cnc5c(C(F)(F)F)cccc45)c3)ccc21 [Example 79, 5-({3-[3-benzyl-8-(trifluoromethyl)quinolin-4-yl]benzyl}amino)-1-methyl-1H-indole-3-carboxylic acid]	3	629 nM	1820 nM
Cc1cnc2c(C(F)(F)F)cccc2c1-c1cccc(CNc2cccc3c(C(=O)O)cccc23)c1 [Example 80, 5-({3-[3-methyl-8-(trifluoromethyl)quinolin-4-yl]benzyl}amino)-1-naphthoic acid]	3	129 nM	374 nM
O=C(O)c1cc(NCc2cccc(-c3c(Cc4ccccc4)cnc4c(C(F)(F)F)cccc34)c2)ccc1Cl [Example 82, 5-({3-[3-benzyl-8-(trifluoromethyl)quinolin-4-yl]benzyl}amino)-2-chlorobenzoic acid]	3	523 nM	1450 nM

Next, values leading:

Binding ratio a/b (human LXRβ)	IC50 (human LXRβ)	IC50 (human LXRα)	Structure (SMILES)
4	309 nM	1100 nM	O=C(N[C@@H](Cc1c[nH]cn1)C(=O)O)c1cccc(COc2cccc(-c3c(Cc4ccccc4)cnc4c(C(F)(F)F)cccc34)c2)c1 [Example 72, N-[3-({3-[3-benzyl-8-(trifluoromethyl)quinolin-4-yl]phenoxy}methyl)benzoyl]histidine]
3	318 nM	983 nM	CSCC[C@H](NC(=O)c1cccc(COc2cccc(-c3c(Cc4ccccc4)cnc4c(C(F)(F)F)cccc34)c2)c1)C(=O)O [Example 76, N-[3-({3-[3-benzyl-8-(trifluoromethyl)quinolin-4-yl]phenoxy}methyl)benzoyl]methionine]
3	408 nM	1250 nM	O=C(O)c1cc2cccc(NCc3cccc(-c4c(Cc5ccccc5)cnc5c(C(F)(F)F)cccc45)c3)c2[nH]1 [Example 77, 7-({3-[3-benzyl-8-(trifluoromethyl)quinolin-4-yl]benzyl}amino)-1H-indole-2-carboxylic acid]
3	236 nM	654 nM	CC(C)C[C@H](NC(=O)c1ccc(COc2cccc(-c3c(Cc4ccccc4)cnc4c(C(F)(F)F)cccc34)c2)cc1)C(=O)O [Example 81, N-[4-({3-[3-benzyl-8-(trifluoromethyl)quinolin-4-yl]phenoxy}methyl)benzoyl]leucine]
3	292 nM	802 nM	O=C(O)c1c[nH]c2c(NCc3cccc(-c4c(Cc5ccccc5)cnc5c(C(F)(F)F)cccc45)c3)cccc12 [Example 83, 7-({3-[3-benzyl-8-(trifluoromethyl)quinolin-4-yl]benzyl}amino)-1H-indole-3-carboxylic acid]
